Data: patent US20090270497A1, “Treatment of Non-Localized Inflammation with pan-HDAC Inhibitors” (PHARMACYCLICS, INC., priority 2008, published 2009)

Tests used:
[1] = tested on: Class I and Class II HDAC isoforms; experiment: HDAC isoform inhibition (all Class I and Class II); assay type: biochemical
RAW cells [2] = experiment: Cytokine mRNA expression by RT-PCR in LPS-treated RAW cells; assay type: cell-based; conditions: 0.1 μM for 30 min, then 100 ng/ml LPS 6 hours
Description: RT-PCR was performed (30 cycles), and PCR products were analyzed on a 1% agarose gel. […] (FIG. 1)

RAW cells [3] = experiment: Secreted cytokine protein by ELISA in LPS-treated RAW cells; assay type: cell-based; conditions: 0.1 μM for 30 min, LPS 100 ng/ml for 16 hr
Description: Culture media was collected and analyzed by ELISA for TNFα, IL-1β and IL-6 proteins (n=3±S.D.). […] (FIG. 2).

[4] = tested on: sepsis by treatment with LPS; experiment: Survival after induction of sepsis by LPS (endotoxemia); assay type: in vivo
Description: At 72 hours after induction of sepsis by treatment with LPS, a subject has a 0% chance of survival. […] This remains constant through 144 hours.
Culture media was collected and analyzed by ELISA for TNFα, IL-1β and IL-6 proteins (n=3±S.D.). […] (FIG. 4).

[5] = tested on: inducible nitric oxide synthase (iNOS); experiment: iNOS expression by Western blot in LPS-treated RAW cells; assay type: cell-based; conditions: various amounts for 30 min, LPS 100 ng/ml 16 hours
Description: Cell lysates were analyzed by Western blot with antibodies to the inducible nitric oxide synthase (iNOS) (above) and HuR (below) as a negative control. […] (FIG. 3).

CN(C)Cc1c(C(=O)NCCOc2ccc(C(=O)NO)cc2)oc2ccccc12 [Compound 1]
inhibition of all Class I and Class II HDAC isoforms [1]: inhibits all Class I and Class II HDAC isoforms
RNA level of IL-1β (RAW cells [2]): decreased
RNA level of IL-6 (RAW cells [2]): decreased
RNA level of TNF (RAW cells [2]): decreased
IL-1β protein in culture media (RAW cells [3]): decreases
IL-6 protein in culture media (RAW cells [3]): decreases
TNFα protein in culture media (RAW cells [3]): decreases
chances of survival ([4]; 25 μg/gram of body weight, at 72 hours after LPS, steady through 144 hours): 30%
chances of survival ([4]; 50 μg/gram of body weight, constant through 144 hours after LPS): 70%
increase of survival from endotoxemia ([4]; FIG. 4 legend, dose not stated): 70%
iNOS expression [5]: decreases in a dose-dependant manner
